Laboratory results published in US20130012506A1 (priority 2010, published 2013).

Assays:
M. tuberculosis H37Rv = format: cell-based, Mycobacterium tuberculosis
[1] = test system: M. tuberculosis clinical isolates; format: cell-based, Mycobacterium tuberculosis; details: multi-drug-resistant and extensive-drug-resistant isolates

**Q.** `NNC(=O)c1ccncc1` [INH, isoniazid] was tested. Which Frequency of resistance (M. tuberculosis H37Rv) did it give?
**A.** 2.9×10^−6

**Q.** Which “MIC values for MDR-TB and XDR-TB isolates strains” value [1] does the source give for `Cc1cccn2c(=O)c(C=O)c(Nc3cccc(Cl)c3)nc12` [compound 133, 2-(3-Chlorophenylamino)-9-methyl-4-oxo-4H-pyrido[1,2-a]pyrimidine-3-carbaldehyde] here?
**A.** within the micromolar range

**Q.** `O=c1c(CO)c(Nc2cccc(Cl)c2)nc2c(F)cccn12` [compound 264, 2-(3-Chlorophenylamino)-9-fluoro-3-(hydroxymethyl)-4H-pyrido[1,2-a]pyrimidin-4-one] was tested. Which spontaneous mutational rate (M. tuberculosis H37Rv) did it give?
**A.** 7×10^−7
